# Data published in ChEMBL document CHEMBL1201862, “PubChem BioAssay data set” (2004).
# Active and inactive are the calls of the source.
# Key:
# [1] = T. cruzi growth inhibition in host cells, dose response, cell-based, plate reader, dry powder, set 2 (AID 652275); type: functional
# [2] = target: Paired box protein Pax-8 (Homo sapiens, UniProt Q06710); experiment: inhibitors of PAX8-driven TPO luciferase reporter, dose response, RMG-I cells, cherry-pick (AID 687027); type: functional, cell-based;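 also: luciferase reporter driven by Pax8 target thyroperoxidase promoter measured by SteadyGlo luminescence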
# Chain of Paired box protein Pax-8 (Q06710 whole entry): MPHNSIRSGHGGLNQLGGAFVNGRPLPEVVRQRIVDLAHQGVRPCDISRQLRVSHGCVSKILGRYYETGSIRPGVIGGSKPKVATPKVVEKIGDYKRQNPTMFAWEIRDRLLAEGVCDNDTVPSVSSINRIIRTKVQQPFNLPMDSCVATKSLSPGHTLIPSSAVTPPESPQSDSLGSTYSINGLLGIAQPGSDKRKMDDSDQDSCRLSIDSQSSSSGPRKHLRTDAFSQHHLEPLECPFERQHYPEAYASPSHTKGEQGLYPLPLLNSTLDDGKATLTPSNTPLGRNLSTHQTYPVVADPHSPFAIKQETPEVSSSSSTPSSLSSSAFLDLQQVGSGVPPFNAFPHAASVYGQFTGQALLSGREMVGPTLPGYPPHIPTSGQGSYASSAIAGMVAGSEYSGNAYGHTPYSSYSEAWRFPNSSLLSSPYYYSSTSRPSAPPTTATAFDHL
# [3] = non-specific cell cytotoxicity, dose response, cytotoxicity control for PAX8 inhibitor project, plate reader, dry powder samples (AID 743021); type: functional, cell-based
# [4] = target: Disintegrin and metalloproteinase domain-containing protein 17 (Homo sapiens, UniProt P78536); experiment: exosite inhibitors of ADAM17, dose response, biochemical (AID 743260)
# Chain of Disintegrin and metalloproteinase domain-containing protein 17 (P78536 whole entry, the tested form may be a part): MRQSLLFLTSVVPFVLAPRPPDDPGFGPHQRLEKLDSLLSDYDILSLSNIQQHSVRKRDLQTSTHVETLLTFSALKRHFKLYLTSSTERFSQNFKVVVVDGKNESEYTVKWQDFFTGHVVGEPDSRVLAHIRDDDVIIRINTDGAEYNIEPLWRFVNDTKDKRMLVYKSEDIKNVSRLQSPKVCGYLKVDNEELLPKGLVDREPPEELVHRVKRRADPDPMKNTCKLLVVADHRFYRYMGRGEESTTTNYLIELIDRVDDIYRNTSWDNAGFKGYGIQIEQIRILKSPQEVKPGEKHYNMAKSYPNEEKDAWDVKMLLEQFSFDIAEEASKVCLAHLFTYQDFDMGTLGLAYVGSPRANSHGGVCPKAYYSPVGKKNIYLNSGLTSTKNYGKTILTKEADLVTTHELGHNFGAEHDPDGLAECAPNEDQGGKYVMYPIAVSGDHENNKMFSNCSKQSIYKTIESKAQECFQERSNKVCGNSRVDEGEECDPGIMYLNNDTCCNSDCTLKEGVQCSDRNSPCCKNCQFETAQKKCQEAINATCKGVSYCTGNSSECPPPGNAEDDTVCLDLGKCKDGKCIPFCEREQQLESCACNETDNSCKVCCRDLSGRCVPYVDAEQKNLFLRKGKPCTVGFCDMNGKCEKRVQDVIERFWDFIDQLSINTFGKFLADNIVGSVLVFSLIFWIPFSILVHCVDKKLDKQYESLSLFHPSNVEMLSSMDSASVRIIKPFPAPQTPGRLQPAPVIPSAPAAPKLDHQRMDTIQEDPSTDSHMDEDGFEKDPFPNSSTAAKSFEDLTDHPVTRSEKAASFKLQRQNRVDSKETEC
# [5] = ADAM10 protease inhibitors, dose response, selectivity assay for ADAM17 exosite inhibitor project, biochemical, FRET peptide substrate, recombinant human ADAM10 (AID 743259);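 also: ADAM10 enzyme cleaving a FRET peptide substrate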
# [6] = MITF Orthogonal Assay: SK-MEL-5 CTG Assay Measured in Cell-Based System Using Plate Reader - 2084-02_Inhibitor_Dose_DryPowder_Activity_Set7.; type: functional
# [7] = MITF: Counter assay: A375 proliferation Measured in Cell-Based System Using Plate Reader - 2084-03_Inhibitor_Dose_DryPowder_Activity_Set8.; type: functional; conditions: A-375
# [8] = TRPM1 promoter luciferase reporter signal decrease, dose response, MITF inhibitor project, cell-based, SK-MEL-5, dry powder, set 8 (AID 624430); type: functional
# [9] = cells; type: functional, cell-based
# [10] = target: T1, Nuclear receptor subfamily 0 group B member 1 (Homo sapiens, UniProt P51843); type: functional, cell-based;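 also: HEK293T cells transfected with SF-1 and DAX-1 plus StAR promoter luciferase reporter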
# T1 sequence (P51843 whole entry): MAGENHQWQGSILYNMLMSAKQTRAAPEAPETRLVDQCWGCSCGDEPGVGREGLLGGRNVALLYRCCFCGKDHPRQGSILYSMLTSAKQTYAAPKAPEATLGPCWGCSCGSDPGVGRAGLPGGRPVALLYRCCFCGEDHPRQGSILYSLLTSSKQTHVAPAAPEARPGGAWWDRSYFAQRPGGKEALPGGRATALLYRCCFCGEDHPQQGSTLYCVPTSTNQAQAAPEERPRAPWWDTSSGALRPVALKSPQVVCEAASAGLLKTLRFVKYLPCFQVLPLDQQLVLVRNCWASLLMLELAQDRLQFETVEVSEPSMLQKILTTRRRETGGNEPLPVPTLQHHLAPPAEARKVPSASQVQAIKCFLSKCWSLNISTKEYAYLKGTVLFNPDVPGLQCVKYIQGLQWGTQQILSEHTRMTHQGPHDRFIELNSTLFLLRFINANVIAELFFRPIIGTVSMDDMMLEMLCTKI
# [11] = cytotoxicity in HPDE-C7 cells, cell-based, fluorescence, HTS (AID 430); type: functional; conditions: Homo sapiens
# [12] = cytotoxicity in KRAS-transformed pancreatic duct cells, primary screen, cell-based, fluorescence, HTS (AID 431); type: functional; conditions: Homo sapiens;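 also: cell line used: HPDE-C7K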
# [13] = target: T2, Replicative DNA helicase DnaB (Mycobacterium tuberculosis, UniProt P9WMR3); experiment: DnaB intein splicing inhibitors, dose response, biochemical, cell-free fluorescence (AID 449749); type: functional
# T2 sequence (P9WMR3 whole entry): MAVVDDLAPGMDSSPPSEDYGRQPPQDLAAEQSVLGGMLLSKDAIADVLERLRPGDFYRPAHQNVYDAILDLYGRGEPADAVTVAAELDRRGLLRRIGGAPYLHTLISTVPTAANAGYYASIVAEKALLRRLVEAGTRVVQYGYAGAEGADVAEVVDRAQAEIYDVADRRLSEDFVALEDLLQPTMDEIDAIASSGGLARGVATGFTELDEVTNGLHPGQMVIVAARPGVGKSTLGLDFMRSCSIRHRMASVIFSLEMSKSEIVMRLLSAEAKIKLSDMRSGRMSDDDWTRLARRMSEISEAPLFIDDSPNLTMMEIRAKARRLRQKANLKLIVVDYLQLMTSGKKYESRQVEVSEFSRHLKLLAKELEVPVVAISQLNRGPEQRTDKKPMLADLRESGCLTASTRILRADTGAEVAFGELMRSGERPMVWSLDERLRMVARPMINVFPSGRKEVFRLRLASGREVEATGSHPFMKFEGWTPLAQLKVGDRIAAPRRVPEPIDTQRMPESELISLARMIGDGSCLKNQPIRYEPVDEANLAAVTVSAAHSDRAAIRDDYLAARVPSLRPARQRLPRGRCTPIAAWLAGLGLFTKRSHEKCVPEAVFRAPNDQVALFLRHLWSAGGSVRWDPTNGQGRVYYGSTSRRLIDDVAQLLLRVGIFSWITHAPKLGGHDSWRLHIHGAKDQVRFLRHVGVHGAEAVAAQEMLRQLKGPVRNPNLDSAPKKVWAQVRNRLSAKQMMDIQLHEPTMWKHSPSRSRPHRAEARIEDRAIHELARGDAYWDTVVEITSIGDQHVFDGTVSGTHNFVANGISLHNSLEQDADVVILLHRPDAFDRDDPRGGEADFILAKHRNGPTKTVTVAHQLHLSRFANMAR
# [14] = target: T3, Protein RecA (Mycobacterium tuberculosis, UniProt P9WHJ3); experiment: Fluorescence Cell-Free Homogeneous Dose Retest to Identify Inhibitors of RecA-Intein Splicing Activity. [Related pubchem assays (depositor defined):AID2097, AID2223, AID489010, AID492950]; type: functional
# T3 sequence (P9WHJ3 whole entry): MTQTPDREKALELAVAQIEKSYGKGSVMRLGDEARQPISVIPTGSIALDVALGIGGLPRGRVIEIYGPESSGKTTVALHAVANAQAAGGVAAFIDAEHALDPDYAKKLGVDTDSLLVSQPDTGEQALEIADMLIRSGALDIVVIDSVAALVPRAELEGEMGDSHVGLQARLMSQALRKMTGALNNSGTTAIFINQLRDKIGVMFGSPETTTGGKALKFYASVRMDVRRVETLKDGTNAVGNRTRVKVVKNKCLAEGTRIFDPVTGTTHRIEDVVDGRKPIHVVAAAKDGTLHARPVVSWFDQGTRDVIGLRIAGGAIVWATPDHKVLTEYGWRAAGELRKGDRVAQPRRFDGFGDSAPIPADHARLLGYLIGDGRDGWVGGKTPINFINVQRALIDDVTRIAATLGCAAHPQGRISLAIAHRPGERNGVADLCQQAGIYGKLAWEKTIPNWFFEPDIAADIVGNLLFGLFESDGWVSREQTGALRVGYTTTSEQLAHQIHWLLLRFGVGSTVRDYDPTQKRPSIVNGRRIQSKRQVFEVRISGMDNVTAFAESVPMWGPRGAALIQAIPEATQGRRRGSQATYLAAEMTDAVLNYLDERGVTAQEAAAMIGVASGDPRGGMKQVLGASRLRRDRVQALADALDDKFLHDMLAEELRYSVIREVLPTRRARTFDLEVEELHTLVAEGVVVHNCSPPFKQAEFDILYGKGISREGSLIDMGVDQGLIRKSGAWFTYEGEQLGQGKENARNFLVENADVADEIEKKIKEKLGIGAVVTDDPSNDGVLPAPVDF
# [15] = target: Galanin receptor type 3 (Homo sapiens, UniProt O60755); experiment: Fluorescence-based cell-based primary high throughput dose response assay to identify antagonists of the Galanin Receptor 3 (GalR3).; type: functional
# Chain of Galanin receptor type 3 (O60755 whole entry): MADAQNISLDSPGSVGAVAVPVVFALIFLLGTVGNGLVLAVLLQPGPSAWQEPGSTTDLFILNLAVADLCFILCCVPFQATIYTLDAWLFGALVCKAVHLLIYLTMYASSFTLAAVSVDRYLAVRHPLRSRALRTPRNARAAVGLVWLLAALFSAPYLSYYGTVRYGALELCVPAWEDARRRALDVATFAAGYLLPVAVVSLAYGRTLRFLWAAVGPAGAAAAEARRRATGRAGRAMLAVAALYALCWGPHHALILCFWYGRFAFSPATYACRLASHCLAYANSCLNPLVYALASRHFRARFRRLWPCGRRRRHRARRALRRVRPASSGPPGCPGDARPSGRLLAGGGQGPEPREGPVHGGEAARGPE
# [16] = cells; type: functional, cell-based; conditions: HEK-CNG
# [17] = target: T4, Mannose-6-phosphate isomerase (Homo sapiens, UniProt P34949); experiment: human PMI inhibitors, high substrate, primary screen, biochemical, fluorescence intensity, high mannose 6-phosphate (AID 1220)
# T4 sequence (P34949 whole entry): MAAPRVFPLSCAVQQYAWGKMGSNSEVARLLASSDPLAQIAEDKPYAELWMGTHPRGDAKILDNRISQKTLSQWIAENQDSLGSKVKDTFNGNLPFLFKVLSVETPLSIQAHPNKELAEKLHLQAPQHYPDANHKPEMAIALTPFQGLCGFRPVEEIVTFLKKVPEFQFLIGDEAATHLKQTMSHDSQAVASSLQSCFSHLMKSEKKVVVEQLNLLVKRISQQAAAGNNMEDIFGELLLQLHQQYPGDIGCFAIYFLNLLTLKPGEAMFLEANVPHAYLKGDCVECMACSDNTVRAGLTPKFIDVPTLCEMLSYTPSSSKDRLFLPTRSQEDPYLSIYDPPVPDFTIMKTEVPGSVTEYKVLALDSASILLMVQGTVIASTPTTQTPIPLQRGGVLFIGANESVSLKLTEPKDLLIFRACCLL
# [18] = target: T5, Sentrin-specific protease 8 (Homo sapiens, UniProt Q96LD8); type: functional
# T5 sequence (Q96LD8 whole entry): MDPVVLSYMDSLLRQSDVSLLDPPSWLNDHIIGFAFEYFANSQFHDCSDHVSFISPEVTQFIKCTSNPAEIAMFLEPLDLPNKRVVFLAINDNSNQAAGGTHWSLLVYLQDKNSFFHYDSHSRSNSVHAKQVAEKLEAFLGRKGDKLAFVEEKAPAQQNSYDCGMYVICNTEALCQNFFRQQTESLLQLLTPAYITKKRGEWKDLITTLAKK
# [19] = target: T5, Sentrin-specific protease 8; type: functional; remark: listed apart in the source
# [20] = target: T6, Caspase-3 (Homo sapiens, UniProt P42574); experiment: Dose-response confirmation of uHTS inhibitor hits of Sentrin-Specific Protease 8 in a Caspase-3 Fluorescence assay.; type: functional
# T6 sequence (P42574 whole entry): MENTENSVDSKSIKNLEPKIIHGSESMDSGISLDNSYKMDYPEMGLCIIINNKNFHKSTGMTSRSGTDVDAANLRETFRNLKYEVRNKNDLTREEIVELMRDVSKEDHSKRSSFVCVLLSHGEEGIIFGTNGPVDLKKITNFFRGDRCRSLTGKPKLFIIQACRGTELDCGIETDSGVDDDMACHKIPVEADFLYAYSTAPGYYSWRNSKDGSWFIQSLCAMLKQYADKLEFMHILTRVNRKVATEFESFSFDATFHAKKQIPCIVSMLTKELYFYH
structure (smiles),measurement,setting,value
CC(C)N1CC2(CN(Cc3cccc(F)c3)C2)Oc2c(NC(=O)c3ccncc3)cccc2C1=O,AC50,[1],0.41 µM (active)
COc1ccc(-c2cc(CNc3nc(NC(C)C)nc4cc(-c5ccccc5)sc34)on2)cc1,AC50,[2],9.84 µM (active)
same,AC50,[3],18.8 µM (active)
COc1cccc(C(Nc2ccccc2)c2ccc3ccc(C)nc3c2O)c1 (configuration not stated),IC50,[4],> 69.2 µM (inactive)
same,IC50,[5],18.5 µM (inactive)
CC(C)N1CCN(C2=C(Nc3ccc(I)cc3)C(=O)c3ccccc3C2=O)CC1,AC50,[6],10.8 µM (active)
same,AC50,[7],33.9 µM (active)
same,AC50,[8],2.96 µM (active)
O=C(Nc1nnc(SCc2ccccc2F)s1)C1=COCCO1,IC50,[9],> 67.6 µM (inactive)
same,IC50,[10],> 67.6 µM (inactive)
CCn1c2ccccc2c2cc(C3C(C#N)=C(N)Oc4[nH]nc(COC)c43)ccc21 (configuration not stated),EC50,[11],7.03 µM (active)
same,EC50,[12],7.72 µM (active)
same,AC50,[13],> 380 µM (inconclusive)
same,EC50,[14],2.7 µM (active)
same,IC50,[15],> 29.9 µM (inactive)
same,EC50,[16],> 29.9 µM (inactive)
CCOC(=O)c1nn(-c2ccccc2C)c(=O)c2c(N)scc12,IC50,[17],> 50 µM (not active)
same,AC50,[13],> 120 µM (inactive)
same,EC50,[14],11.4 µM (active)
same,IC50,[18],4.12 µM (active)
same,IC50,[19],17.3 µM (active)
same,IC50,[20],93.3 µM (inactive)
